Assay results: patent US10941147B2, “Bicyclic heteroaryl derivatives” (Hoffmann-La Roche Inc., priority 2016, dated 2021)

Target: T1, γ-secretase (Homo sapiens, UniProt P49768)
T1 construct: Human neuroglioma H4 cells overexpressing human APP695; endogenous in cells; host or cells: human neuroglioma H4 cells stably overexpressing human APP695 Swedish
Experiment: Cellular γ-secretase assay (inhibition of Aβ42 secretion, AlphaLisa)
Type: cell-based
Details: Human neuroglioma H4 cells overexpressing human APP695 Swedish double mutation; 24 hr compound incubation; secreted Aβ42 in supernatant
Procedure: Description of γ-Secretase Assay
Cellular γ-Secretase Assay
Human neuroglioma H4 cells overexpressing human APP695 with the Swedish double mutation (K595N/M596L) were plated at 30,000 cells/well/100 al in 96-well plates in IMDM media containing 10% FCS, […] Hygromycin B and incubated at 37° C., 5% CO2.
3-4 hr post plating, compounds are a diluted in media and 50 μl is added as 1.5-fold concentrate to achieve the final concentration. Compound incubation is performed for 24 hr. Final doses typically range from 4 μM down to 0.0013 μM in half-log steps resulting in a eight point dose response curve.
Appropriate controls using vehicle only and reference compound were applied to this assay. The final concentration of Me2SO was 0.4%.
After incubation at 37° C., 5% CO2, the supernatant was subjected to quantification of secreted Aβ42 by the means of an AlphaLisa assay kit (Human Amyloid beta 1-42 Kit: Cat #AL203C, Perkin Elmer). 20 μl of the cell culture supernatant was transferred to an assay plate. Then 10 μl of a mixture of the AlphaLisa coupled capture antibody and the biotinylated detection antibody was added and incubated for 3 hours at room temperature while softly shaking the assay plate. After a further addition of 20 μl of the Donor beads the assay plate was incubated for 30 min at room temperature and constant shaking without exposure to direct light. The assay plate was then read on a Paradigm AlphaLisa Reader using the build-in program with excitation at 680 nm and emission at […].
The measured signals were then used to calculate IC50 values for inhibition of Aβ42 secretion by nonlinear regression fit analysis using XLfit 5.3 software (IDBS).

EC50 [µM]	SMILES
0.0234	Cc1cc(N2C[C@H]3CC[C@@H](C2)[C@@H]3Nc2nc3n(n2)CCCCC3c2ccc(Cl)cc2)ncn1 (mixture of isomers) [Example 7, 9-(4-chlorophenyl)-N-[(1R,5S,8S)-3-(6-methylpyrimidin-4-yl)-3-azabicyclo[3.2.1]octan-8-yl]-6,7,8,9-tetrahydro-5H-[1,2,4]triazolo[1,5-a]azepin-2-amine]
0.0346	Fc1ccc(C2CCCCn3nc(N[C@@H]4[C@@H]5CC[C@H]4CN(c4ccnc(C(F)(F)F)c4)C5)nc32)c(F)c1F (stereo partly drawn) [Example 1, N-[(1R,5S,8S)-3-[2-(trifluoromethyl)-4-pyridyl]-3-azabicyclo[3.2.1]octan-8-yl]-9-(2,3,4-trifluorophenyl)-6,7,8,9-tetrahydro-5H-[1,2,4]triazolo[1,5-a]azepin-2-amine]
0.0484	FC(F)(F)c1ccc(C2CCCCn3nc(N[C@@H]4[C@@H]5CC[C@H]4CN(c4ccnc(C(F)(F)F)c4)C5)nc32)cc1 (stereo partly drawn) [Example 2, 9-[4-(trifluoromethyl)phenyl]-N-[(1R,5S,8S)-3-[2-(trifluoromethyl)-4-pyridyl]-3-azabicyclo[3.2.1]octan-8-yl]-6,7,8,9-tetrahydro-5H-[1,2,4]triazolo[1,5-a]azepin-2-amine]
0.0374	Cc1cc(N2C[C@H]3CC[C@@H](C2)[C@@H]3Nc2nc3n(n2)CCCC[C@H]3c2ccc(C(F)(F)F)cc2)ncn1 [Example 4, (9S)—N-[(1R,5S)-3-(6-methylpyrimidin-4-yl)-3-azabicyclo[3.2.1]octan-8-yl]-9-[4-(trifluoromethyl)phenyl]-6,7,8,9-tetrahydro-5H-[1,2,4]triazolo[1,5-a]azepin-2-amine]
0.0116	Cc1cc(N2C[C@H]3CC[C@@H](C2)C3Nc2nc3n(n2)CCCC[C@@H]3c2ccc(C(F)(F)F)cc2)ncn1 (stereo partly drawn) [Example 5, (9R)—N-[(1R,5S)-3-(6-methylpyrimidin-4-yl)-3-azabicyclo[3.2.1]octan-8-yl]-9-[4-(trifluoromethyl)phenyl]-6,7,8,9-tetrahydro-5H-[1,2,4]triazolo[1,5-a]azepin-2-amine]
0.0506	FC(F)(F)c1cc(N2C[C@H]3CC[C@@H](C2)[C@@H]3Nc2nc3n(n2)CCCCC3c2ccc(Cl)cc2)ccn1 (stereo partly drawn) [Example 6, 9-(4-chlorophenyl)-N-[(1R,5S,8S)-3-[2-(trifluoromethyl)-4-pyridyl]-3-azabicyclo[3.2.1]octan-8-yl]-6,7,8,9-tetrahydro-5H-[1,2,4]triazolo[1,5-a]azepin-2-amine]
0.0319	Cc1cc(N2C[C@H]3CC[C@@H](C2)[C@@H]3Nc2nc3n(n2)CCCC[C@H]3c2ccc(Cl)cc2)ncn1 [Example 8, (9S)-9-(4-chlorophenyl)-N-[(1R,5S,8S)-3-(6-methylpyrimidin-4-yl)-3-azabicyclo[3.2.1]octan-8-yl]-6,7,8,9-tetrahydro-5H-[1,2,4]triazolo[1,5-a]azepin-2-amine]
0.0489	Cc1cc(N2C[C@H]3CC[C@@H](C2)[C@@H]3Nc2nc3n(n2)CCCC[C@@H]3c2ccc(Cl)cc2)ncn1 [Example 9, (9R)-9-(4-chlorophenyl)-N-[(1R,5S,8S)-3-(6-methylpyrimidin-4-yl)-3-azabicyclo[3.2.1]octan-8-yl]-6,7,8,9-tetrahydro-5H-[1,2,4]triazolo[1,5-a]azepin-2-amine]
0.0337	FC(F)(F)c1cccc(C2CCCCn3nc(N[C@@H]4[C@@H]5CC[C@H]4CN(c4ccnc(C(F)(F)F)c4)C5)nc32)c1 (stereo partly drawn) [Example 10, 9-[3-(trifluoromethyl)phenyl]-N-[(1R,5S,8S)-3-[2-(trifluoromethyl)-4-pyridyl]-3-azabicyclo[3.2.1]octan-8-yl]-6,7,8,9-tetrahydro-5H-[1,2,4]triazolo[1,5-a]azepin-2-amine]

More lines, now with the values behind:

SMILES	EC50 [µM]
Cc1cc(N2C[C@H]3CC[C@@H](C2)[C@@H]3Nc2nc3n(n2)CCCCC3c2ccc(C(F)(F)F)cc2)ncn1 (mixture of isomers) [Example 3, N-[(1R,5S,8S)-3-(6-methylpyrimidin-4-yl)-3-azabicyclo[3.2.1]octan-8-yl]-9-[4-(trifluoromethyl)phenyl]-6,7,8,9-tetrahydro-5H-[1,2,4]triazolo[1,5-a]azepin-2-amine]	0.0206
Cc1cc(N2C[C@H]3CC[C@@H](C2)[C@@H]3Nc2nc3n(n2)CCCCC3c2cccc(C(F)(F)F)c2)ncn1 (mixture of isomers) [Example 11, N-[(1R,5S,8S)-3-(6-methylpyrimidin-4-yl)-3-azabicyclo[3.2.1]octan-8-yl]-9-[3-(trifluoromethyl)phenyl]-6,7,8,9-tetrahydro-5H-[1,2,4]triazolo[1,5-a]azepin-2-amine]	0.028
Cc1cc(N2C[C@H]3CC[C@@H](C2)[C@@H]3Nc2nc3n(n2)CCCCC3c2ccc(F)c(F)c2F)ncn1 (mixture of isomers) [Example 14, N-[(1R,5S,8S)-3-(6-methylpyrimidin-4-yl)-3-azabicyclo[3.2.1]octan-8-yl]-9-(2,3,4-trifluorophenyl)-6,7,8,9-tetrahydro-5H-[1,2,4]triazolo[1,5-a]azepin-2-amine]	0.0126
Fc1ccc(C2CCCCn3nc(N[C@@H]4[C@@H]5CC[C@H]4CN(c4cc(Cl)ncn4)C5)nc32)c(F)c1F (mixture of isomers) [Example 17, N-[(1R,5S,8S)-3-(6-chloropyrimidin-4-yl)-3-azabicyclo[3.2.1]octan-8-yl]-9-(2,3,4-trifluorophenyl)-6,7,8,9-tetrahydro-5H-[1,2,4]triazolo[1,5-a]azepin-2-amine]	0.0177
Cc1cc(N2C[C@H]3CC[C@@H](C2)[C@@H]3Nc2nc3n(n2)CCCC[C@H]3c2cccc(C(F)(F)F)c2)ncn1 [Example 12, (9S)—N-[(1R,5S,8S)-3-(6-methylpyrimidin-4-yl)-3-azabicyclo[3.2.1]octan-8-yl]-9-[3-(trifluoromethyl)phenyl]-6,7,8,9-tetrahydro-5H-[1,2,4]triazolo[1,5-a]azepin-2-amine]	0.0149
Cc1cc(N2C[C@H]3CC[C@@H](C2)[C@@H]3Nc2nc3n(n2)CCCC[C@@H]3c2cccc(C(F)(F)F)c2)ncn1 [Example 13, (9R)—N-[(1R,5S,8S)-3-(6-methylpyrimidin-4-yl)-3-azabicyclo[3.2.1]octan-8-yl]-9-[3-(trifluoromethyl)phenyl]-6,7,8,9-tetrahydro-5H-[1,2,4]triazolo[1,5-a]azepin-2-amine]	0.015
Cc1cc(N2C[C@H]3CC[C@@H](C2)[C@@H]3Nc2nc3n(n2)CCCC[C@H]3c2ccc(F)c(F)c2F)ncn1 [Example 15, (9S)—N-[(1R,5S,8S)-3-(6-methylpyrimidin-4-yl)-3-azabicyclo[3.2.1]octan-8-yl]-9-(2,3,4-trifluorophenyl)-6,7,8,9-tetrahydro-5H-[1,2,4]triazolo[1,5-a]azepin-2-amine]	0.0084
Cc1cc(N2C[C@H]3CC[C@@H](C2)[C@@H]3Nc2nc3n(n2)CCCC[C@@H]3c2ccc(F)c(F)c2F)ncn1 [Example 16, (9R)—N-[(1R,5S,8S)-3-(6-methylpyrimidin-4-yl)-3-azabicyclo[3.2.1]octan-8-yl]-9-(2,3,4-trifluorophenyl)-6,7,8,9-tetrahydro-5H-[1,2,4]triazolo[1,5-a]azepin-2-amine]	0.0071
Fc1ccc([C@@H]2CCCCn3nc(N[C@@H]4[C@@H]5CC[C@H]4CN(c4cc(Cl)ncn4)C5)nc32)c(F)c1F [Example 18, (9S)—N-[(1R,5S,8S)-3-(6-chloropyrimidin-4-yl)-3-azabicyclo[3.2.1]octan-8-yl]-9-(2,3,4-trifluorophenyl)-6,7,8,9-tetrahydro-5H-[1,2,4]triazolo[1,5-a]azepin-2-amine]	0.0124
Fc1ccc([C@H]2CCCCn3nc(N[C@@H]4[C@@H]5CC[C@H]4CN(c4cc(Cl)ncn4)C5)nc32)c(F)c1F [Example 19, (9R)—N-[(1R,5S,8S)-3-(6-chloropyrimidin-4-yl)-3-azabicyclo[3.2.1]octan-8-yl]-9-(2,3,4-trifluorophenyl)-6,7,8,9-tetrahydro-5H-[1,2,4]triazolo[1,5-a]azepin-2-amine]	0.0125
COc1cc(N2C[C@H]3CC[C@@H](C2)[C@@H]3Nc2nc3n(n2)CCCCC3c2ccc(F)c(F)c2F)ccn1 (stereo partly drawn) [Example 20, N-[(1R,5S,8S)-3-(2-methoxy-4-pyridyl)-3-azabicyclo[3.2.1]octan-8-yl]-9-(2,3,4-trifluorophenyl)-6,7,8,9-tetrahydro-5H-[1,2,4]triazolo[1,5-a]azepin-2-amine]	0.0085
COc1cc(N2C[C@H]3CC[C@@H](C2)[C@@H]3Nc2nc3n(n2)CCCCC3c2ccc(F)c(F)c2F)ncn1 (stereo partly drawn) [Example 21, N-[(1R,5S,8S)-3-(6-methoxypyrimidin-4-yl)-3-azabicyclo[3.2.1]octan-8-yl]-9-(2,3,4-trifluorophenyl)-6,7,8,9-tetrahydro-5H-[1,2,4]triazolo[1,5-a]azepin-2-amine]	0.0534
Cc1ncnc(N2C[C@H]3CC[C@@H](C2)[C@@H]3Nc2nc3n(n2)CCCCC3c2ccc(F)c(F)c2F)c1F (stereo partly drawn) [Example 22, N-[(1R,5S,8S)-3-(5-fluoro-6-methyl-pyrimidin-4-yl)-3-azabicyclo[3.2.1]octan-8-yl]-9-(2,3,4-trifluorophenyl)-6,7,8,9-tetrahydro-5H-[1,2,4]triazolo[1,5-a]azepin-2-amine]	0.0303
